Measurements taken from PubChem BioAssay (NCI).
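GI50 marks 50% less growth. TGI denotes the concentration required for complete inhibition of growth.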

Experiments:
Assay in all cases: growth of human tumour cells (NCI), 384-well format
RPMI-8226 leukemia = system: RPMI-8226 leukemia
OVCAR-5 ovarian = system: OVCAR-5 ovarian
KM12 colon = system: KM12 colon
MDA-MB-231 breast = system: MDA-MB-231 breast
SK-MEL-28 melanoma = system: SK-MEL-28 melanoma
SN12C renal = system: SN12C renal
SF-539 CNS = system: SF-539 CNS
HCC-2998 colon = system: HCC-2998 colon
SK-OV-3 ovarian = system: SK-OV-3 ovarian
ACHN renal = system: ACHN renal
SNB-19 CNS = system: SNB-19 CNS
HT29 colon = system: HT29 colon
CAKI-1 renal = system: CAKI-1 renal
NCI-H460 NSCLC = system: NCI-H460 NSCLC
SNB-75 CNS = system: SNB-75 CNS
OVCAR-4 ovarian = system: OVCAR-4 ovarian
DU-145 prostate = system: DU-145 prostate
BT-549 breast = system: BT-549 breast
EKVX NSCLC = system: EKVX NSCLC
T-47D breast = system: T-47D breast
HCT-116 colon = system: HCT-116 colon
HCT-15 colon = system: HCT-15 colon
U251 glioblastoma = system: U251 glioblastoma
HS 578T breast = system: HS 578T breast
NCI-H23 lung = system: NCI-H23 lung
OVCAR-8 ovarian = system: OVCAR-8 ovarian
TK-10 renal = system: TK-10 renal
NCI-H226 lung = system: NCI-H226 lung
SF-295 CNS = system: SF-295 CNS
SF-268 CNS = system: SF-268 CNS
NCI-H322M lung = system: NCI-H322M lung
HOP-92 NSCLC = system: HOP-92 NSCLC
OVCAR-3 ovarian = system: OVCAR-3 ovarian
UACC-257 melanoma = system: UACC-257 melanoma
UACC-62 melanoma = system: UACC-62 melanoma
SR leukemia = system: SR leukemia
NCI-H522 lung = system: NCI-H522 lung
A498 renal = system: A498 renal
MDA-MB-435 melanoma = system: MDA-MB-435 melanoma
COLO 205 colon = system: COLO 205 colon
MOLT-4 leukemia = system: MOLT-4 leukemia
RXF 393 renal = system: RXF 393 renal
MALME-3M melanoma = system: MALME-3M melanoma
PC-3 prostate = system: PC-3 prostate
LOX IMVI melanoma = system: LOX IMVI melanoma
MCF7 breast = system: MCF7 breast
HOP-62 NSCLC = system: HOP-62 NSCLC
M14 melanoma = system: M14 melanoma
SK-MEL-5 melanoma = system: SK-MEL-5 melanoma
MDA-MB-468 breast = system: MDA-MB-468 breast
A549 NSCLC = system: A549 NSCLC
NCI/ADR-RES ovarian = system: NCI/ADR-RES ovarian
IGROV1 ovarian = system: IGROV1 ovarian
HL-60(TB) leukemia = system: HL-60(TB) leukemia

N#CCNC(=O)c1ccc(-c2ccnc(Nc3ccc(N4CCOCC4)cc3)n2)cc1
GI50 (RPMI-8226 leukemia): 1.23 µM
TGI (RPMI-8226 leukemia): 2.87 µM
GI50 (OVCAR-5 ovarian): 2.63 µM
TGI (OVCAR-5 ovarian): 5.71 µM
GI50 (KM12 colon): 3.51 µM
TGI (KM12 colon): 74.1 µM
GI50 (MDA-MB-231 breast): 1.89 µM
TGI (MDA-MB-231 breast): 16.8 µM
GI50 (SK-MEL-28 melanoma): 6.23 µM
TGI (SK-MEL-28 melanoma): 50.8 µM
GI50 (SN12C renal): 0.787 µM
TGI (SN12C renal): 3.94 µM
GI50 (SF-539 CNS): 2.12 µM
TGI (SF-539 CNS): 10 µM
GI50 (HCC-2998 colon): 1.93 µM
TGI (HCC-2998 colon): 4.18 µM
GI50 (SK-OV-3 ovarian): 2.73 µM
TGI (SK-OV-3 ovarian): 20.7 µM
GI50 (ACHN renal): 1.27 µM
TGI (ACHN renal): 4.14 µM
GI50 (SNB-19 CNS): 7.84 µM
TGI (SNB-19 CNS): 28.3 µM
GI50 (HT29 colon): 4.15 µM
TGI (HT29 colon): 24.6 µM
GI50 (CAKI-1 renal): 1.23 µM
TGI (CAKI-1 renal): 3.19 µM
GI50 (NCI-H460 NSCLC): 1.06 µM
TGI (NCI-H460 NSCLC): 2.5 µM
GI50 (SNB-75 CNS): 2.52 µM
TGI (SNB-75 CNS): 15.5 µM
GI50 (OVCAR-4 ovarian): 3.59 µM
TGI (OVCAR-4 ovarian): 11.1 µM
GI50 (DU-145 prostate): 1.55 µM
TGI (DU-145 prostate): 3.99 µM
GI50 (BT-549 breast): 1.15 µM
TGI (BT-549 breast): 2.46 µM
GI50 (EKVX NSCLC): 2.93 µM
TGI (EKVX NSCLC): 16.8 µM
GI50 (T-47D breast): 11 µM
TGI (T-47D breast): 39.9 µM
GI50 (HCT-116 colon): 1.51 µM
TGI (HCT-116 colon): 3.91 µM
GI50 (HCT-15 colon): 3.02 µM
TGI (HCT-15 colon): 10.7 µM
GI50 (U251 glioblastoma): 2.28 µM
TGI (U251 glioblastoma): 5.9 µM
GI50 (HS 578T breast): 1.32 µM
TGI (HS 578T breast): 3.33 µM
GI50 (NCI-H23 lung): 2.33 µM
TGI (NCI-H23 lung): 13.6 µM
GI50 (OVCAR-8 ovarian): 3.68 µM
TGI (OVCAR-8 ovarian): 17.6 µM
GI50 (TK-10 renal): 1.25 µM
TGI (TK-10 renal): 3.27 µM
GI50 (NCI-H226 lung): 1.43 µM
TGI (NCI-H226 lung): 3.66 µM
GI50 (SF-295 CNS): 4.06 µM
TGI (SF-295 CNS): 17 µM
GI50 (SF-268 CNS): 2.12 µM
TGI (SF-268 CNS): 6.6 µM
GI50 (NCI-H322M lung): 2.72 µM
TGI (NCI-H322M lung): 10.8 µM
GI50 (HOP-92 NSCLC): 6.94 µM
TGI (HOP-92 NSCLC): 29 µM
GI50 (OVCAR-3 ovarian): 4.64 µM
TGI (OVCAR-3 ovarian): 19 µM
GI50 (UACC-257 melanoma): 3.19 µM
TGI (UACC-257 melanoma): 8.82 µM
GI50 (UACC-62 melanoma): 3.57 µM
TGI (UACC-62 melanoma): 15.3 µM
GI50 (SR leukemia): 0.468 µM
TGI (SR leukemia): 1.29 µM
GI50 (NCI-H522 lung): 1.64 µM
TGI (NCI-H522 lung): 6.45 µM
GI50 (A498 renal): 1.14 µM
TGI (A498 renal): 2.53 µM
GI50 (MDA-MB-435 melanoma): 4.02 µM
TGI (MDA-MB-435 melanoma): 21.5 µM
GI50 (COLO 205 colon): 4.24 µM
TGI (COLO 205 colon): 14.8 µM
GI50 (MOLT-4 leukemia): 2.07 µM
TGI (MOLT-4 leukemia): 3.99 µM
GI50 (RXF 393 renal): 1.61 µM
TGI (RXF 393 renal): 3.26 µM
GI50 (MALME-3M melanoma): 3.05 µM
TGI (MALME-3M melanoma): 23.5 µM
GI50 (PC-3 prostate): 2.9 µM
TGI (PC-3 prostate): 11.8 µM
GI50 (LOX IMVI melanoma): 1.7 µM
TGI (LOX IMVI melanoma): 4.06 µM
GI50 (MCF7 breast): 2.24 µM
TGI (MCF7 breast): 8.44 µM
GI50 (HOP-62 NSCLC): 1.81 µM
TGI (HOP-62 NSCLC): 4.09 µM
GI50 (M14 melanoma): 6.27 µM
TGI (M14 melanoma): 51.2 µM
GI50 (SK-MEL-5 melanoma): 2.16 µM
TGI (SK-MEL-5 melanoma): 9.34 µM
GI50 (MDA-MB-468 breast): 1.37 µM
TGI (MDA-MB-468 breast): 3.2 µM
GI50 (A549 NSCLC): 3.19 µM
TGI (A549 NSCLC): 13.7 µM
GI50 (NCI/ADR-RES ovarian): 21.4 µM
TGI (NCI/ADR-RES ovarian): > 100 µM
GI50 (IGROV1 ovarian): 1.42 µM
TGI (IGROV1 ovarian): 3.91 µM
GI50 (HL-60(TB) leukemia): 1.55 µM
TGI (HL-60(TB) leukemia): 2.89 µM

COc1ccc(COc2cc3oc(=O)c4cc(C(C)O)ccc4c3cc2OC)cc1 (centres undefined)
GI50 (RPMI-8226 leukemia): 16.3 µM
TGI (RPMI-8226 leukemia): > 100 µM
GI50 (OVCAR-5 ovarian): 61.2 µM
TGI (OVCAR-5 ovarian): > 100 µM
GI50 (KM12 colon): 8.27 µM
TGI (KM12 colon): > 100 µM
GI50 (MDA-MB-231 breast): 20.3 µM
TGI (MDA-MB-231 breast): 77.5 µM
GI50 (SK-MEL-28 melanoma): 55.3 µM
TGI (SK-MEL-28 melanoma): > 100 µM
GI50 (SN12C renal): 20 µM
TGI (SN12C renal): 90.1 µM
GI50 (SF-539 CNS): 7.79 µM
TGI (SF-539 CNS): 20.6 µM
GI50 (HCC-2998 colon): 14.6 µM
TGI (HCC-2998 colon): > 100 µM
GI50 (SK-OV-3 ovarian): 3.89 µM
TGI (SK-OV-3 ovarian): 21.2 µM
GI50 (ACHN renal): 23 µM
TGI (ACHN renal): 61.2 µM
GI50 (SNB-19 CNS): 7.73 µM
TGI (SNB-19 CNS): 20.8 µM
GI50 (HT29 colon): 6.91 µM
TGI (HT29 colon): > 100 µM
GI50 (CAKI-1 renal): 18.6 µM
TGI (CAKI-1 renal): 60.8 µM
GI50 (NCI-H460 NSCLC): 5.65 µM
TGI (NCI-H460 NSCLC): 85.9 µM
GI50 (SNB-75 CNS): 6.65 µM
TGI (SNB-75 CNS): 20.3 µM
GI50 (OVCAR-4 ovarian): 3.41 µM
TGI (OVCAR-4 ovarian): 12.3 µM
GI50 (DU-145 prostate): 41.6 µM
TGI (DU-145 prostate): > 100 µM
GI50 (BT-549 breast): 6.81 µM
TGI (BT-549 breast): 20.5 µM
GI50 (EKVX NSCLC): 12.2 µM
TGI (EKVX NSCLC): 43.2 µM
GI50 (T-47D breast): 10.6 µM
TGI (T-47D breast): 61.5 µM
GI50 (HCT-116 colon): 9.41 µM
TGI (HCT-116 colon): > 100 µM
GI50 (HCT-15 colon): 3.57 µM
TGI (HCT-15 colon): > 100 µM
GI50 (U251 glioblastoma): 7.43 µM
TGI (U251 glioblastoma): 24.8 µM
GI50 (HS 578T breast): 5.56 µM
TGI (HS 578T breast): 19.3 µM
GI50 (NCI-H23 lung): 11.9 µM
TGI (NCI-H23 lung): 36.9 µM
GI50 (OVCAR-8 ovarian): 12.6 µM
TGI (OVCAR-8 ovarian): 54.2 µM
GI50 (TK-10 renal): 10.5 µM
TGI (TK-10 renal): 25.6 µM
GI50 (NCI-H226 lung): 15.2 µM
TGI (NCI-H226 lung): 33.8 µM
GI50 (SF-295 CNS): 10.4 µM
TGI (SF-295 CNS): 30.6 µM
GI50 (SF-268 CNS): 4.6 µM
TGI (SF-268 CNS): 16 µM
GI50 (NCI-H322M lung): 20.4 µM
TGI (NCI-H322M lung): 71.4 µM
GI50 (HOP-92 NSCLC): 11.3 µM
TGI (HOP-92 NSCLC): 30.1 µM
GI50 (OVCAR-3 ovarian): 10.1 µM
TGI (OVCAR-3 ovarian): 24.7 µM
GI50 (UACC-257 melanoma): 24.3 µM
TGI (UACC-257 melanoma): 94.6 µM
GI50 (UACC-62 melanoma): 8.49 µM
TGI (UACC-62 melanoma): 22.8 µM
GI50 (SR leukemia): 1.87 µM
TGI (SR leukemia): 5.69 µM
GI50 (NCI-H522 lung): 5.04 µM
TGI (NCI-H522 lung): 16.4 µM
GI50 (A498 renal): 12.2 µM
TGI (A498 renal): 35 µM
GI50 (MDA-MB-435 melanoma): 2.09 µM
TGI (MDA-MB-435 melanoma): 4.71 µM
GI50 (COLO 205 colon): > 100 µM
TGI (COLO 205 colon): > 100 µM
GI50 (MOLT-4 leukemia): 5.6 µM
TGI (MOLT-4 leukemia): > 100 µM
GI50 (RXF 393 renal): 5.55 µM
TGI (RXF 393 renal): 19.5 µM
GI50 (MALME-3M melanoma): 15.8 µM
TGI (MALME-3M melanoma): > 100 µM
GI50 (PC-3 prostate): 24.9 µM
TGI (PC-3 prostate): 93.1 µM
GI50 (LOX IMVI melanoma): 17 µM
TGI (LOX IMVI melanoma): > 100 µM
GI50 (MCF7 breast): 5.21 µM
TGI (MCF7 breast): 22.2 µM
GI50 (HOP-62 NSCLC): 8.11 µM
TGI (HOP-62 NSCLC): 24.5 µM
GI50 (M14 melanoma): 8.95 µM
TGI (M14 melanoma): > 100 µM
GI50 (SK-MEL-5 melanoma): 3.62 µM
TGI (SK-MEL-5 melanoma): 12.5 µM
GI50 (MDA-MB-468 breast): 4.9 µM
TGI (MDA-MB-468 breast): 25.2 µM
GI50 (A549 NSCLC): 18.6 µM
TGI (A549 NSCLC): > 100 µM
GI50 (NCI/ADR-RES ovarian): 4.8 µM
TGI (NCI/ADR-RES ovarian): 59.4 µM
GI50 (IGROV1 ovarian): 15.3 µM
TGI (IGROV1 ovarian): 35.7 µM
